In patent US20060281673A1, “Novel peptide inhibitor of hiv fusion that disrupts the internal trimeric coiled-coil of gp41” (priority 2003, published 2006):
Values joined by “and” are separate entries in the source; they are usually repeats but may differ in a detail not shown here. Identical values can stand only once. “Also recorded” adds a separate entry of the source.

Assays:
[1] = Sedimentation equilibrium (analytical ultracentrifugation), oligomeric state; assay type: physicochemical; details: 50 mM sodium formate pH 3, 20.0° C.
Description: […]. J. Biochem. 157:169-180)).

[2] = target: pre-hairpin intermediate of gp41 (Human immunodeficiency virus type 1 group M subtype B, UniProt P04578); set-up: species or system HIV-1
[3] = target: T1, C34 peptide derived from the C-terminal region of gp41 (residues 628-661) (Human immunodeficiency virus type 1 group M subtype B, UniProt P04578); test: Interaction with C34 by analytical ultracentrifugation or CD; assay type: binding, HIV-1
T1 construct: the C34 peptide comprises residues 628-661 of the C-region of HIV-1 gp41; purchased Commonwealth Biotechnologies (Richmond, Va.); host or cells: solid-phase synthesis
Protocol: (§1) Circular Dichroism—CD spectra of peptides (at a concentration corresponding to 0.7-0.8 A280) were recorded at 25° C. on a JASCO J-720 spectropolarimeter using a 0.05-cm path length cell.
Sedimentation Equilibrium—Sedimentation equilibrium experiments were conducted at 20.0° C. and three different rotor speeds (16,000, 20,000, and 24,000) on a Beckman Optima XL-A analytical ultracentrifuge. Peptide samples were prepared in 50 mM sodium formate buffer (pH=3) and loaded into the ultracentrifuge cells at nominal loading concentrations of ˜0.2 and 0.7-0.8 A280. Data were analyzed in terms of a single ideal solute to obtain the buoyant molecular mass, M(1−νρ), using the Optima XL-A data analysis software (Beckman). […] J. Biochem. 157:169-180)).

[4] = Circular dichroism, secondary structure; assay type: physicochemical; details: CD at 25° C., program CDNN
Protocol: as §1

[5] = test system: HIV Env-mediated cell fusion; details: read-out: fails to inhibit fusion even at concentrations as high as

T1 sequence (P04578 628-661): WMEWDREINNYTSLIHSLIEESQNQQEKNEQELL
Sequence of pre-hairpin intermediate of gp41 (P04578 512-856): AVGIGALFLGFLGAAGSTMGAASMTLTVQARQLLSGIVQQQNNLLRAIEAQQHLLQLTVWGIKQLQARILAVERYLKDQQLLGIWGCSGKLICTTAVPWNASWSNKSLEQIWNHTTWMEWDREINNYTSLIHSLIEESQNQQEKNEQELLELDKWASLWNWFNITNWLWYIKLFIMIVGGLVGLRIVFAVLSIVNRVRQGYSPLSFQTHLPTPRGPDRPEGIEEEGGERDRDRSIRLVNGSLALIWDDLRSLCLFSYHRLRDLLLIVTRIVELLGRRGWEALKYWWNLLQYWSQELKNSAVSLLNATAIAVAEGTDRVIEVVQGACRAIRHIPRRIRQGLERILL

| Substance | oligomeric state in solution [1] | optimized value of β (heterotrimerization with gp41 relative to Kref^trimer) [2] | interaction with C34 [3] | helical content [4] [%] | IC50 [5] [µM] |
| --- | --- | --- | --- | --- | --- |
| Ac-SGIDQEQNNLTRLIEAQIHELQLTQWKIKQLLARIL-NH2 [N36^Mut(e,g)] | monodisperse, helical trimer | 2.97 and 5.76 | does not interact with C34; also recorded: No evidence of interaction | ~80 |  |
| SGIVQQLNNQLRAEEANQHLEQLSVWGSKQNQARRL; peptide derived from N36 with nine substitutions at positions a and d of the helical wheel (SGIVQQLNNQLRAEEANQHLEQLSVWGSKQNQARRL) [N36^Mut(a,d)] | monomeric; also recorded: monomer |  | does not interact with the C34 peptide; also recorded: No evidence of interaction | ~20 | > 100 |
